# Assay results from patent publication US20220340582A1, “CANNABINOID DERIVATIVES” (CANOPY GROWTH CORPORATION, priority 2019, published 2022).
# Where two headings read alike, the source gives them in different places.
# Assays:
# human CB1 receptor = molecular target: T1, human CB1 receptor (Homo sapiens, UniProt P21554); assay: CB1 radioligand competitive binding assay ([3H]CP 55,940 displacement)
# T1 construct: host or cells: CHO-K1
# human CB2 receptor = molecular target: T2, human CB2 receptor (Homo sapiens, UniProt P34972); assay: CB2 radioligand competitive binding assay ([3H]CP 55,940 displacement); settings: for Selectivity CB2: fold difference between CB1 and CB2 binding, printed in the column of the receptor with the higher binding affinity
# T2 construct: host or cells: CHO-K1
# Method: Compounds of the present disclosure were tested for CB1 receptor binding affinity and for CB2 receptor binding affinity. As used herein, “binding affinity” is represented by the IC50 value, which was experimentally determined as described herein. The lower the IC50 value the higher the binding affinity.
# The membranes were prepared from CHO-K1 (Chinese hamster ovary) cells stably transfected with the human CB2 receptor (Cat. #ES-111-C; Perkin Elmer, Boston, Mass.). The cells were grown adherently and maintained in Ham's F12 medium containing 10% fetal bovine serum (FBS), penicillin, streptomycin and geneticin (G418) at 37° C. in a humid atmosphere of 5% CO2 following the manufacturer's instructions.
# For membrane preparation the cells were washed with PBS and scraped off the plates in cold homogenization buffer (25 mM HEPES (pH 7.4), 2 mM EDTA) containing protease inhibitor cocktail (Sigma Cat. #P8340). The cell suspension was homogenized with a Pro-PK-01200D Polytron Homogenizer (Pro Scientific) and then centrifuged for 30 min at 120,000×g. The supernatant was discarded and the pellet was re-suspended in the homogenization buffer and stored at −80° C. until the time of use.
# In this experiment, 3H radiolabeled CP 55,940, i.e. [3H]CP 55,940 (Perkin Elmer, Boston, Mass.), was used as a radioligand for the CB2 receptor to determine the binding affinity of compounds for the CB2 receptor (Scheme 4; above).
# The competition binding experiments (single dose and dose-response) were performed by incubating 0.6 nM of [3H]CP55,940 (specific activity 101 Ci/mmol, Perkin Elmer) and different concentrations of compounds disclosed herein with membranes prepared as above from CHO-K1 cells expressing human CB2 receptor (1 μg of protein/well), 50 mM Tris-HCl (pH 7.4), 5 mM MgCl2, 1 mM CaCl2, and 2 mg/mL BSA.
# For the dose-response experiments the test compounds were sequentially diluted to provide the desired concentration range for the IC50 determination. In each case the compounds were pre-incubated with the membrane for 20 min, before adding the radioligand.
# After incubation with the radioligand for 60 min at 37° C., the incubation was terminated by rapid filtration of assay mixture through MultiScreen®HTS^+96-well filter plates (Millipore, Cat. #MSFCNXB), pre-soaked for 60 min with 50 mM Tris-HCl (pH 7.4) containing 0.33% polyethylenimine (PEI). The nonspecific binding (NSB) was determined in the presence of 10 μM unlabelled CP55,940. After drying the filter plate at 50° C. for at least 60 min, the filter-bound radioactivity was determined by scintillation spectrometry using the 1450 MicroBeta Plate Counter (Perkin Elmer, Boston, MA).
# [1] = 0.8 nM [3H]CP 55,940, CHO-K1 membranes expressing human CB1 receptor, dose-response, read-out: CB1 IC50
# [2] = 0.6 nM [3H]CP55,940, CHO-K1 membranes expressing human CB2 receptor, dose-response, read-out: CB2 IC50
# T1 sequence (P21554 whole entry): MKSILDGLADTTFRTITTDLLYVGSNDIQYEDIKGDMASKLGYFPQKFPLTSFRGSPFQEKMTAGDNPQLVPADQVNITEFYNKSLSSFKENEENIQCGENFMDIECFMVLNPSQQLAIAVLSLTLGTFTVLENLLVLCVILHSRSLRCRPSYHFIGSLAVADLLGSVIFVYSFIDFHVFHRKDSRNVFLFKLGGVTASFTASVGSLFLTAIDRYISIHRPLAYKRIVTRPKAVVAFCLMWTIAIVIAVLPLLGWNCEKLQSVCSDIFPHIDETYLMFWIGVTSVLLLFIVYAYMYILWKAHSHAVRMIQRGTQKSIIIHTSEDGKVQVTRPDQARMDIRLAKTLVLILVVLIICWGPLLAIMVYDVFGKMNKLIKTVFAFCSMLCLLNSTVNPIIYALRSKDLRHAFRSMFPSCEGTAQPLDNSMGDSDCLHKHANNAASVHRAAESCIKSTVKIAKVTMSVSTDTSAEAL
# T2 sequence (P34972 whole entry): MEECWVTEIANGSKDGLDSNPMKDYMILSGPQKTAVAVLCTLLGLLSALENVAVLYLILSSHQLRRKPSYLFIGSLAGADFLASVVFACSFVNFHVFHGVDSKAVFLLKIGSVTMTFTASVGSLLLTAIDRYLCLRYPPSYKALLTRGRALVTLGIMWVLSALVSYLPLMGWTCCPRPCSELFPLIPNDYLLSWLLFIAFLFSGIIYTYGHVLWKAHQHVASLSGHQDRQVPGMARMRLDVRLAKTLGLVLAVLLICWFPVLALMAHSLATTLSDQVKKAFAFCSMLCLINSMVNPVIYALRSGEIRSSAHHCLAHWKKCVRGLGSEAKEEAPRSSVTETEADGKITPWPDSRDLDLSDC
SMILES,IC50 (human CB1 receptor),IC50 (human CB2 receptor),Selectivity CB2 (human CB2 receptor),IC50 (human CB1 receptor; [1]),IC50 (human CB2 receptor; [2]),"Selectivity CB1 (human CB1 receptor; fold difference between CB1 and CB2 binding, printed in the column of the receptor with the higher binding affinity)"
"CCCCCc1cc2c(c(O)c1C(=O)N1CCCC1)[C@@H]1C=C(C)CC[C@H]1C(C)(C)O2 [Compound 41b, (1-hydroxy-6,6,9-trimethyl-3-pentyl-6a,7,8,10a-tetrahydro-6H-benzo[c]chromen-2-yl)(pyrrolidin-1-yl)methanone]",100 to 490 nM,100 to 490 nM,2.06 fold,,,
"CCCCCc1cc2c(c(O)c1C(=O)NCc1cccnc1)[C@@H]1C=C(C)CC[C@H]1C(C)(C)O2 [Compound 15b, 1-hydroxy-6,6,9-trimethyl-3-pentyl-N-(pyridin-3-ylmethyl)-6a,7,8,10a-tetrahydro-6H-benzo[c]chromene-2-carboxamide]",,,19.07 fold,> 1000 nM,< 100 nM,
"CCCCCc1cc2c(c(O)c1C(=O)N1CCOCC1)[C@@H]1C=C(C)CC[C@H]1C(C)(C)O2 [Compound 39b, (1-hydroxy-6,6,9-trimethyl-3-pentyl-6a,7,8,10a-tetrahydro-6H-benzo[c]chromen-2-yl)(morpholino)methanone]",100 to 490 nM,100 to 490 nM,1.53 fold,,,
"CCCCCc1cc2c(c(O)c1C(=O)NCC)[C@@H]1C=C(C)CC[C@H]1C(C)(C)O2 [Compound 3b, N-ethyl-1-hydroxy-6,6,9-trimethyl-3-pentyl-6a,7,8,10a-tetrahydro-6H-benzo[c]chromene-2-carboxamide]",500 to 990 nM,100 to 490 nM,3.33 fold,,,
"CCCCCc1cc2c(c(O)c1C(=O)NC1CC1)[C@@H]1C=C(C)CC[C@H]1C(C)(C)O2 [Compound 6b, N-cyclopropyl-1-hydroxy-6,6,9-trimethyl-3-pentyl-6a,7,8,10a-tetrahydro-6H-benzo[c]chromene-2-carboxamide]",100 to 490 nM,< 100 nM,9.08 fold,,,
"CCCCCc1cc2c(c(O)c1C(=O)Nc1ccccc1)[C@@H]1C=C(C)CC[C@H]1C(C)(C)O2 [Compound 10b, 1-hydroxy-6,6,9-trimethyl-3-pentyl-N-phenyl-6a,7,8,10a-tetrahydro-6H-benzo[c]chromene-2-carboxamide]",,,8.81 fold,< 100 nM,< 100 nM,
"CCCCCc1cc2c(c(O)c1C(=O)N1Cc3ccccc3C1)[C@@H]1C=C(C)CC[C@H]1C(C)(C)O2 [Compound 43b, (1-hydroxy-6,6,9-trimethyl-3-pentyl-6a,7,8,10a-tetrahydro-6H-benzo[c]chromen-2-yl)(isoindolin-2-yl)methanone]",> 1000 nM,100 to 490 nM,8.33 fold,,,
"CCCCCc1cc2c(c(O)c1C(=O)N(CC)CC)[C@@H]1C=C(C)CC[C@H]1C(C)(C)O2 [Compound 50b, N,N-diethyl-1-hydroxy-6,6,9-trimethyl-3-pentyl-6a,7,8,10a-tetrahydro-6H-benzo[c]chromene-2-carboxamide]",100 to 490 nM,< 100 nM,4.38 fold,,,
"CCCCCc1cc2c(c(O)c1C(=O)N1CCN(C(C)=O)CC1)[C@@H]1C=C(C)CC[C@H]1C(C)(C)O2 [Compound 36b, 1-(4-(1-hydroxy-6,6,9-trimethyl-3-pentyl-6a,7,8,10a-tetrahydro-6H-benzo[c]chromene-2-carbonyl)piperazin-1-yl)ethan-1-one]",> 1000 nM,> 1000 nM,,,,1.10 fold
"CCCc1cc2c(c(O)c1C(=O)NC)[C@@H]1C=C(C)CC[C@H]1C(C)(C)O2 [Compound 58b, 1-hydroxy-N,6,6,9-tetramethyl-3-propyl-6a,7,8,10a-tetrahydro-6H-benzo[c]chromene-2-carboxamide]",> 1000 nM,> 1000 nM,6.87 fold,,,
